Test results reported in patent publication US5045566A, “Novel imidate insecticides” (ICI Americas Inc., priority 1989, dated 1991).

Legend:
Format in all cases: in vivo
[1] = tested on: Tobacco Budworm [Heliothis virescens (Fabricius)] eggs; assay: Tobacco budworm eggs (TBW-E); conditions: percent in solution; 2-day old eggs
How it was run: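 Paper-towel patches of 2-day-old eggs dipped in acetone solutions of compound (0.1% downward), held on larval rearing medium at 78° F. Mortality scored once all control eggs had hatched and larvae were feeding; LC50 from dosage-mortality curves, expressed as percent compound in solution.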

[2] = tested on: Housefly [Musca domestica]; assay: Housefly contact mortality in dishes (HF), 48 hours; conditions: μg of test compound per 25 female flies
How it was run: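 Dry-film exposure of 25 female houseflies per cage, 48 h; LC50 as μg per 25 flies.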

[3] = tested on: Black Bean Aphid [Aphis fabae (Scop.)]; assay: Black bean aphid spray test on nasturtium (BBA), 48 hours; conditions: percent of test compound in sprayed solution
How it was run: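 LC50, given as percent test compound in the sprayed liquid, was calculated from dosage-mortality curves using concentrations from 0.05% downward. Sprays in 50:50 acetone-water went to runoff on ~5 cm nasturtiums carrying 25-50 aphids of mixed ages, one day after infestation. Deaths were counted 48 h later under greenhouse conditions.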

[4] = tested on: Aster Leafhopper [Macrosteles fascifrens (Stal)]; assay: Aster leafhopper on dipped oat seedlings (LH), 48 hours; conditions: percent in solution, adults/nymphs
How it was run: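 LC50 values, given as percent of test compound in the dip solution, were derived from dosage-mortality curves over concentrations from 0.05% downward. Mortality was counted 48 hours after ten leafhopper adults/nymphs were enclosed on treated seedlings. The seedlings were oats, about 10 cm tall, briefly dipped in 50-50 acetone-water.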

[5] = tested on: Maize weevil [Sitophilus zeamais (Motschulsky)]; assay: Maize weevil on dipped corn seeds (MW), 48 hours; conditions: percent in solution, adult weevils
How it was run: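 LC50, given as percent of compound in dipping solution, comes from dosage-mortality curves over concentrations descending from 0.01%. Four corn seeds soaked 2-3 s in 50:50 acetone:water solution were dried and held with 10 adult weevils, about 25° C, mortality read after 48 h.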

[6] = tested on: Tobacco Budworm [Heliothis virescens (Fabricius)] larvae; assay: Tobacco budworm larvae, contact (TBW-C), 5 days; conditions: percent in solution, second-instar larvae
How it was run: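 Cotton cotyledons dipped 2–3 s in compound in 50-50 acetone-water, dried, then infested with 5 second-instar larvae and held 5 days at high humidity. Mortality scored; LC50 from dosage-mortality curves, expressed as percent compound in solution, concentrations from 0.1% downward.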

[7] = tested on: Beet Armyworm (Spodoptera exigua); assay: Beet armyworm leaf dip (BAW), 5 days; conditions: percent in solution; second-instar larvae; five days
Protocol: The compounds in Tables 1 and 2 above were tested for insecticidal activity using the following testing procedures. LC50 values, based on the results of these tests and calculated according to dosage-mortality curves, are expressed in Table 3.
Beet Armyworm (Spodoptera exigua):
Test compounds were diluted in a 50-50 acetone-water solution. Young leaves of sugar beets (Beta vulgaris) were immersed in the test solutions for 2-3 seconds and placed on a wire screen to dry. The dried leaves were placed in petri dishes containing a moistened filter paper and infested with five second-instar beet armyworm larvae. The dishes were placed in a high humidity chamber. Mortality of the larvae was recorded five days later. Test concentrations ranged from 0.1% downward. The LC-50 values are expressed below in Table 3 under the heading "BAW" in terms of percent of the test compound in solution.

[8] = tested on: Cabbage Looper [Trichoplusia ni (Hubner)]; assay: Cabbage looper leaf dip (CL), 3-5 days; conditions: percent in solution, second-instar larvae
How it was run: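 Squash cotyledons dipped 2-3 s in compound in 50-50 acetone-water, dried, then infested with 5 second-instar larvae and held at high humidity. Mortality scored after 3-5 days at concentrations from 0.1% downward. LC50 from dosage-mortality curves, expressed as percent compound in solution.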

Clc1cccc(N=C(OCc2cccc(Oc3ccccc3)c2)C(Cl)Cl)c1 [Compound 1]
LC50 TBW E (eggs) [1]: 0.05%
LC50 HF [2]: 4.8 µg
LC50 BBA [3]: 0.0003%
LC50 LH [4]: > 0.05%
LC50 MW [5]: > 0.01%
LC50 TBW C (contact) [6]: 0.06%
LC50 BAW [7]: 0.009%
LC50 CL [8]: 0.005%

CC(C)C(=Nc1ccc(Cl)cc1)OCc1cccc(Oc2ccccc2)c1 [Compound 2]
LC50 TBW E (eggs) [1]: 0.04%
LC50 HF [2]: 4.5 µg
LC50 BBA [3]: 0.0003%
LC50 LH [4]: 0.0003%
LC50 TBW C (contact) [6]: 0.0009%
LC50 BAW [7]: 0.01%
LC50 CL [8]: 0.006%

CC(Cl)(Cl)C(=Nc1ccc(Cl)cc1)OCc1cccc(Oc2ccccc2)c1 [Compound 3]
LC50 TBW E (eggs) [1]: > 0.1%
LC50 HF [2]: 50 µg
LC50 BBA [3]: 0.003%
LC50 LH [4]: > 0.05%
LC50 MW [5]: > 0.01%
LC50 TBW C (contact) [6]: 0.009%
LC50 BAW [7]: 0.015%
LC50 CL [8]: 0.012%

Clc1ccc(N=C(OCc2cccc(Oc3ccccc3)c2)C(Cl)Cl)c(Cl)c1 [Compound 4]
LC50 TBW E (eggs) [1]: > 0.1%
LC50 HF [2]: 100 µg
LC50 BBA [3]: > 0.05%
LC50 LH [4]: > 0.05%
LC50 TBW C (contact) [6]: 0.05%
LC50 BAW [7]: 0.04%
LC50 CL [8]: 0.007%

CC(C)C(=Nc1ccc(Cl)c(Cl)c1)OCc1cccc(Oc2ccccc2)c1 [Compound 9]
LC50 TBW E (eggs) [1]: 0.02%
LC50 HF [2]: 14 µg
LC50 BBA [3]: 0.001%
LC50 LH [4]: 0.0003%
LC50 MW [5]: > 0.01%
LC50 TBW C (contact) [6]: 0.0008%
LC50 BAW [7]: 0.0005%
LC50 CL [8]: 0.001%

Clc1ccc(N=C(OCc2cccc(Oc3ccccc3)c2)C(Cl)Cl)cc1 [Compound 29]
LC50 TBW E (eggs) [1]: 0.01%
LC50 HF [2]: 5 µg
LC50 BBA [3]: 0.001%
LC50 LH [4]: 0.003%
LC50 MW [5]: > 0.01%
LC50 TBW C (contact) [6]: 0.001%
LC50 BAW [7]: 0.003%
LC50 CL [8]: 0.002%

ClCC(=Nc1ccc(Cl)cc1)OCc1cccc(Oc2ccccc2)c1 [Compound 31]
LC50 TBW E (eggs) [1]: > 0.1%
LC50 HF [2]: > 100 µg
LC50 BBA [3]: 0.05%
LC50 LH [4]: > 0.05%
LC50 MW [5]: > 0.01%
LC50 TBW C (contact) [6]: 0.01%
LC50 BAW [7]: 0.08%
LC50 CL [8]: 0.05%

CC(C)C(=Nc1cccc(F)c1)OCc1cccc(Oc2ccccc2)c1 [Compound 47]
LC50 TBW E (eggs) [1]: 0.06%
LC50 HF [2]: 10 µg
LC50 BBA [3]: 0.001%
LC50 LH [4]: 0.0003%
LC50 TBW C (contact) [6]: 0.002%
LC50 BAW [7]: 0.002%
LC50 CL [8]: 0.002%

CC(C)C(=Nc1ccc(F)cc1F)OCc1cccc(Oc2ccccc2)c1 [Compound 52]
LC50 TBW E (eggs) [1]: > 0.05%
LC50 HF [2]: 8 µg
LC50 BBA [3]: 0.001%
LC50 LH [4]: 0.001%
LC50 TBW C (contact) [6]: 0.004%
LC50 BAW [7]: 0.01%
LC50 CL [8]: 0.0025%

CC(C)C(=Nc1ccc(F)c(F)c1)OCc1cccc(Oc2ccccc2)c1 [Compound 54]
LC50 TBW E (eggs) [1]: 0.017%
LC50 HF [2]: 3.5 µg
LC50 BBA [3]: 0.001%
LC50 LH [4]: 0.00015%
LC50 TBW C (contact) [6]: 0.001%
LC50 BAW [7]: 0.004%
LC50 CL [8]: 0.0003%

CC(C)C(=Nc1ccc(Cl)c(C(F)(F)F)c1)OCc1cccc(Oc2ccccc2)c1 [Compound 71]
LC50 TBW E (eggs) [1]: 0.065%
LC50 HF [2]: 50 µg
LC50 BBA [3]: 0.001%
LC50 LH [4]: 0.002%
LC50 TBW C (contact) [6]: 0.0008%
LC50 BAW [7]: 0.0004%
LC50 CL [8]: 0.0006%

CC(C)C(=Nc1cccc(C(F)(F)F)c1)OCc1ccc(F)c(Oc2ccccc2)c1 [Compound 80]
LC50 TBW E (eggs) [1]: 0.005%
LC50 HF [2]: 4.5 µg
LC50 BBA [3]: 0.00025%
LC50 LH [4]: 0.0001%
LC50 TBW C (contact) [6]: 0.00075%
LC50 BAW [7]: 0.0018%
LC50 CL [8]: 0.0003%

O=[N+]([O-])c1ccc(N=C(OCc2cccc(Oc3ccccc3)c2)C(Cl)Cl)cc1 [Compound 173]
LC50 TBW E (eggs) [1]: > 0.1%
LC50 HF [2]: 18 µg
LC50 BBA [3]: > 0.05%
LC50 TBW C (contact) [6]: > 0.1%
LC50 BAW [7]: > 0.1%
LC50 CL [8]: 0.02%

CC(C)C(=Nc1ccc(Br)c(F)c1)OCc1ccc(F)c(Oc2ccc(F)cc2)c1 [Compound 282]
LC50 TBW E (eggs) [1]: 0.02%
LC50 HF [2]: 16 µg
LC50 MW [5]: 0.008%
LC50 TBW C (contact) [6]: 0.0007%
LC50 BAW [7]: 0.0025%
LC50 CL [8]: 0.00007%

CC(C)C(=Nc1ccc2c(c1)OC(C)(C)O2)OCc1ccc(F)c(Oc2ccc(F)cc2)c1 [Compound 283]
LC50 TBW E (eggs) [1]: 0.016%
LC50 HF [2]: 23 µg
LC50 MW [5]: > 0.01%
LC50 TBW C (contact) [6]: 0.0009%
LC50 BAW [7]: 0.0013%
LC50 CL [8]: 0.00009%

CC(C)C(=Nc1ccc2c(c1)OC(F)(F)O2)OCc1ccc(F)c(Oc2ccc(F)cc2)c1 [Compound 284]
LC50 HF [2]: 39 µg
LC50 BBA [3]: 0.0003%
LC50 LH [4]: 0.0003%
LC50 MW [5]: 0.0075%
LC50 TBW C (contact) [6]: 0.0002%
LC50 BAW [7]: 0.0025%
LC50 CL [8]: 0.00005%

CC(C)C(=Nc1ccc(F)c(I)c1)OCc1ccc(F)c(Oc2ccc(Cl)cc2)c1 [Compound 326]
LC50 TBW E (eggs) [1]: 0.03%
LC50 HF [2]: 25 µg
LC50 BBA [3]: > 0.05%
LC50 TBW C (contact) [6]: 0.0005%
LC50 BAW [7]: 0.004%
LC50 CL [8]: 0.00015%

CC(C)C(=Nc1ccc(F)c(Cl)c1F)OCc1cccc(Oc2ccccc2)c1 [Compound 332]
LC50 TBW E (eggs) [1]: 0.015%
LC50 HF [2]: 7 µg
LC50 BBA [3]: > 0.05%
LC50 TBW C (contact) [6]: 0.00075%
LC50 BAW [7]: 0.0012%
LC50 CL [8]: 0.00045%

CC(C)C(=Nc1ccc(Br)cc1)OCc1ccc(F)c(Oc2ccc(F)cc2)c1 [Compound 333]
LC50 TBW E (eggs) [1]: 0.025%
LC50 HF [2]: 15 µg
LC50 BBA [3]: 0.001%
LC50 MW [5]: > 0.01%
LC50 TBW C (contact) [6]: 0.00075%
LC50 BAW [7]: > 0.1%
LC50 CL [8]: 0.00024%

CC(C)C(=Nc1ccc(I)cc1)OCc1ccc(F)c(Oc2ccc(F)cc2)c1 [Compound 335]
LC50 TBW E (eggs) [1]: 0.05%
LC50 HF [2]: 34 µg
LC50 BBA [3]: 0.0008%
LC50 MW [5]: > 0.01%
LC50 TBW C (contact) [6]: 0.00025%
LC50 BAW [7]: > 0.1%
LC50 CL [8]: 0.00027%

CC(C)C(=Nc1ccc(F)c(Cl)c1)OCc1cc(Oc2ccc(F)cc2)c(F)cc1F [Compound 343]
LC50 TBW E (eggs) [1]: > 0.1%
LC50 HF [2]: 40 µg
LC50 BBA [3]: 0.002%
LC50 MW [5]: > 0.01%
LC50 TBW C (contact) [6]: 0.00025%
LC50 BAW [7]: > 0.1%
LC50 CL [8]: 0.00027%

CC(C)C(=Nc1ccc2c(c1)OC(F)(F)O2)OCc1cccc(Oc2ccc(Cl)cc2)c1 [Compound 450]
LC50 TBW E (eggs) [1]: 0.015%
LC50 HF [2]: 72 µg
LC50 MW [5]: 0.01%
LC50 TBW C (contact) [6]: 0.0001%
LC50 BAW [7]: 0.005%
LC50 CL [8]: 0.00016%

CC(C)C(=Nc1ccc(F)c(Cl)c1F)OCc1cccc(Oc2ccc(Cl)cc2)n1 [Compound 500]
LC50 TBW E (eggs) [1]: 0.02%
LC50 HF [2]: 16 µg
LC50 BBA [3]: > 0.05%
LC50 TBW C (contact) [6]: 0.00075%
LC50 BAW [7]: 0.002%
LC50 CL [8]: 0.00009%
